Test results published in patent publication US20150268223A1, “MICR[…]-CULTURE SYSTEMS AS INFECTIOUS DISEASE ANALYSIS PLATFORMS” (Massachusetts Institute of Technology, priority 2008, published 2015).

Test system: retroviral pseudoparticles bearing the E1/E2 glycoproteins of the Hepatitis C virus (HCV) genotype 1a strain (H77)
Format: cell-based

O=C(O)CN(CCN(CC(=O)O)CC(=O)O)CC(=O)O [EDTA]
access of micropatterned co-cultures to viral pseudoparticles and virus: dramatically improves access
